According to PMC11079868, “Synthesis of Novel Hydrazide–Hydrazone Compounds and In Vitro and In Silico Investigation of Their Biological Activities against AChE, BChE, and hCA I and II” (ACS Omega, 2024):
Read-outs that look alike come from different tables or passages of the source.

Columns and labels:
Assay type in all cases: biochemical
[1] = molecular target: T1, hCA I (Homo sapiens, UniProt P00915); experiment: biochemical; details: for IC50: mean from at least three determinations
T1 construct: from tissue; host or cells: fresh human erythrocytes
T1 sequence (P00915 whole entry): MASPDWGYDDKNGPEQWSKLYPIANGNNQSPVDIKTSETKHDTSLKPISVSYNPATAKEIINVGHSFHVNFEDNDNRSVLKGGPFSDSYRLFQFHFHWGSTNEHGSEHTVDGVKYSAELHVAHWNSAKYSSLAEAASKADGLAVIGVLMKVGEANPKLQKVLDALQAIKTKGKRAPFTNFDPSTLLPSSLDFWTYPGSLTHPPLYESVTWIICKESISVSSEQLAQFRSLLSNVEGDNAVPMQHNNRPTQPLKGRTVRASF
Text: (§1) In this study, hCA I and II were obtained from fresh human erythrocytes using affinity chromatography as previously described in the literature.[36],[37] AChE from Electrophorus electricus (electric eel) (C3389: Sigma-Aldrich), BChE from equine serum (C4290: Sigma-Aldrich), and the other chemicals (4-nitrophenyl acetate (N8130: Sigma-Aldrich), 5,5′-dithiobis(2-nitrobenzoic acid) (D218200: Sigma-Aldrich), acetylthiocholine iodide (A5771: Sigma-Aldrich), butyrylthiocholine iodide (B3253: Sigma-Aldrich)) were purchased from local representatives of well-known commercial companies. On the other hand, the absorbance rates of each compound were determined by a microplate spectrophotometer (Multiskan Go, Thermo Scientific).
(§2) In this study, we conducted hCA I and II activity assays using the Verpoorte method, as outlined in previous literature.[38] The inhibitory activities of all of the newly synthesized compounds were thoroughly tested. The inhibitory activity of each molecule was examined in triplicate at each concentration. Different concentrations were employed for all inhibitors tested in this study, respectively. The baseline activity in the control cuvette, without any inhibitory agent, was established as 100%.

[2] = molecular target: T2, BChE (Equus caballus, UniProt P81908); experiment: BChE activity assay (Ellman method)
T2 construct: BChE from equine serum (C4290: Sigma-Aldrich); purchased Sigma-Aldrich C4290; host or cells: equine serum
T2 sequence (P81908 whole entry): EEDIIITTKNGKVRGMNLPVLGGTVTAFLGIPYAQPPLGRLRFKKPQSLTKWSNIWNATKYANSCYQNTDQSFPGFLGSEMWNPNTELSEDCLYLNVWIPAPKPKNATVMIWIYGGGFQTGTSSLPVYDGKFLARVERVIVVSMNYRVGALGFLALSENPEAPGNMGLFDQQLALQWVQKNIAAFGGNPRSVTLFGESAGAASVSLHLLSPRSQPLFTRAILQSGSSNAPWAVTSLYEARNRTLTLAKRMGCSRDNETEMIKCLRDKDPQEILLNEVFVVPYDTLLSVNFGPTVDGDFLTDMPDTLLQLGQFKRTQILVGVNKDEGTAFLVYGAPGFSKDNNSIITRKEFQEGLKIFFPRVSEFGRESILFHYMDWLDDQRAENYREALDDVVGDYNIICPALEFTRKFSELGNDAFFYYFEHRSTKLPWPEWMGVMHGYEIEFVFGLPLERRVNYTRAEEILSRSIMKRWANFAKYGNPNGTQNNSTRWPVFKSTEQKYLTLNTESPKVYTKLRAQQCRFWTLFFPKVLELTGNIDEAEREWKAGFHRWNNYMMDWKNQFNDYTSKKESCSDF
Text: as §1
(§3) The evaluation of the inhibitory characteristics of all synthesized compounds against AChE and BChE was conducted using the widely recognized Ellman method,[41] as described in pertinent literature sources.[2],[14],[18]

[3] = molecular target: T3, hCA II (Homo sapiens, UniProt P00918); experiment: hCA II activity assay (Verpoorte esterase method); details: mean from at least three determinations
T3 construct: from tissue; host or cells: fresh human erythrocytes
Text: as §1
as §2, with “100%. AZA was used as a positive control compound.” for “100%.”

[4] = molecular target: T4, AChE (Electrophorus electricus, UniProt O42275); experiment: AChE activity assay (Ellman method); details: for IC50: mean from at least three determinations
T4 construct: purchased Sigma-Aldrich C3389
T4 sequence (O42275 24-633): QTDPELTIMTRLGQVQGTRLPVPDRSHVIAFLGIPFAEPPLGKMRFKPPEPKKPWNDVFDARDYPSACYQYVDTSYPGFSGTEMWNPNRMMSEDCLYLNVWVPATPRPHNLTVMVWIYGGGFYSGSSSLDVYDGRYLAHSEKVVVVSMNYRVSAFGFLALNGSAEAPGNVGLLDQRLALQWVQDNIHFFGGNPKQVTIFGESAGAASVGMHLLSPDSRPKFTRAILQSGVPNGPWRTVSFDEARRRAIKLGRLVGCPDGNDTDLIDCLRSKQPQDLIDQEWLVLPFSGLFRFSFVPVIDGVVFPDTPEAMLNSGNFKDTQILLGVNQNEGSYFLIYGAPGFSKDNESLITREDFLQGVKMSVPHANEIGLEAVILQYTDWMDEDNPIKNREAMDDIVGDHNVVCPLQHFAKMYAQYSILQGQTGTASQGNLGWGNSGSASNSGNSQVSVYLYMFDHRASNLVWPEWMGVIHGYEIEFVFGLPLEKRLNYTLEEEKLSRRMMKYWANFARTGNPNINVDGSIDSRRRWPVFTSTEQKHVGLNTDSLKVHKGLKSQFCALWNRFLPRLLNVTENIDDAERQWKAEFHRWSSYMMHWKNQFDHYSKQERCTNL
Text: as §1, §3

[5] = mean from at least three determinations, read-out: IC50 BChE
[6] = ratio of IC50 values vs neostigmine

SMILES | IC50 [1] | IC50 [2, 5] | IC50 [3] | IC50 [4] | inhibition of hCA I relative to AZA ([1]; ratio of IC50 values vs AZA) | inhibition of BChE relative to neostigmine [2, 6] | inhibition of BChE relative to neostigmine ([2]; ratio vs neostigmine, Conclusions text) | inhibition of AChE relative to neostigmine [4, 6] | inhibition of AChE relative to rivastigmine ([4]; ratio of IC50 values vs rivastigmine) | IC50 [2]
CN(C)c1ccc(C(=O)Oc2ccccc2C=O)cc1 [compound 1, 2-Formylphenyl 4-(Dimethylamino)benzoate] | 27.5 ± 0.51 nM | 43.5 ± 0.75 nM | 13.7 ± 0.27 nM | 51.1 ± 0.88 nM | – | – | – | – | – | –
CN(C)c1ccc(C(=O)Oc2ccc(C=O)cc2)cc1 [compound 2, 4-Formylphenyl 4-(Dimethylamino)benzoate] | 25.6 ± 0.47 nM | 41.5 ± 0.68 nM | 12.2 ± 0.21 nM | 48.5 ± 0.81 nM | – | – | – | – | – | –
COc1cccc(C=O)c1OC(=O)c1ccc(N(C)C)cc1 [compound 3, 2-Formyl-6-methoxyphenyl 4-(Dimethylamino)benzoate] | 39.6 ± 0.72 nM | 51.3 ± 0.89 nM | 16.1 ± 0.33 nM | 59.5 ± 0.96 nM | – | – | – | – | – | –
COc1ccc(C=O)cc1OC(=O)c1ccc(N(C)C)cc1 [compound 4, 5-Formyl-2-methoxyphenyl 4-(Dimethylamino)benzoate] | 38.1 ± 0.65 nM | 53.1 ± 0.91 nM | 15.4 ± 0.32 nM | 60.2 ± 1.02 nM | – | – | – | – | – | –
COc1cc(C=O)ccc1OC(=O)c1ccc(N(C)C)cc1 [compound 5, 4-Formyl-2-methoxyphenyl 4-(Dimethylamino)benzoate] | 39.1 ± 0.71 nM | 54.7 ± 0.91 nM | 20.4 ± 0.35 nM | 61.4 ± 1.12 nM | – | – | – | – | – | –
CN(C)c1ccc(C(=O)Oc2ccc3ccccc3c2C=O)cc1 [compound 6, 1-Formylnaphthalen-2-yl 4-(Dimethylamino)benzoate] | 45.1 ± 0.82 nM | 25.2 ± 0.42 nM | 24.7 ± 0.43 nM | 28.2 ± 0.52 nM | – | – | – | – | – | –
CN(C)c1ccc(C(=O)Oc2ccccc2C=NNC(=O)c2cccnc2)cc1 [compound 7, 2-((2-Nicotinoylhydrazono)methyl)phenyl 4-(Dimethylamino)benzoate] | 29.1 ± 0.53 nM | 45.3 ± 0.82 nM | 8.03 ± 0.14 nM | 48.6 ± 0.79 nM | – | – | – | – | – | –
CN(C)c1ccc(C(=O)Oc2ccc(C=NNC(=O)c3cccnc3)cc2)cc1 [compound 8, 4-((2-Nicotinoylhydrazono)methyl)phenyl 4-(Dimethylamino)benzoate] | 21.4 ± 0.39 nM | 43.4 ± 0.83 nM | 7.12 ± 0.12 nM | 46.3 ± 0.75 nM | 13 fold | – | – | – | – | –
COc1cccc(C=NNC(=O)c2cccnc2)c1OC(=O)c1ccc(N(C)C)cc1 [compound 9, 2-Methoxy-6-((2-nicotinoylhydrazono)methyl)phenyl 4-(Dimethylamino)benzoate] | 35.7 ± 0.74 nM | 39.6 ± 0.71 nM | 12.5 ± 0.21 nM | 43.2 ± 0.81 nM | – | – | – | – | – | –
COc1ccc(C=NNC(=O)c2cccnc2)cc1OC(=O)c1ccc(N(C)C)cc1 [compound 10, 2-Methoxy-5-((2-nicotinoylhydrazono)methyl)phenyl 4-(Dimethylamino)benzoate] | 32.5 ± 0.73 nM | 29.7 ± 0.54 nM | 11.8 ± 0.22 nM | 29.6 ± 0.53 nM | – | – | – | – | – | –
COc1cc(C=NNC(=O)c2cccnc2)ccc1OC(=O)c1ccc(N(C)C)cc1 [compound 11, 2-Methoxy-4-((2-nicotinoylhydrazono)methyl)phenyl 4-(Dimethylamino)benzoate] | 32.2 ± 0.72 nM | 28.6 ± 0.5 nM | 11.6 ± 0.22 nM | 28.6 ± 0.52 nM | – | – | – | – | – | –
CN(C)c1ccc(C(=O)Oc2ccc3ccccc3c2C=NNC(=O)c2cccnc2)cc1 [compound 12, 1-((2-Nicotinoylhydrazono)methyl)naphthalen-2-yl 4-(Dimethylamino)benzoate] | 42.7 ± 0.81 nM | 18.4 ± 0.36 nM | 23.5 ± 0.41 nM | 21.4 ± 0.38 nM | – | approximately 5 fold | approximately 4 times | more than 6 fold | approximately 3 fold | –
CN(C)C(=O)Oc1cccc([N+](C)(C)C)c1 [neostigmine, reference compound] | – | – | – | – | – | – | – | – | – | 84 ± 1.07 nM
